Drawing on US20240317721A1, “PYRAZOLYL DERIVATIVES AS INHIBITORS OF THE KRAS MUTANT PROTEIN” (NOVARTIS AG, priority 2021, published 2024), this text covers IC50 for 18 compounds.

A value given as a limit tells only on which side of the number the result lay.

This experiment addresses KRasG12C (M1-K169, biotinylated on the N-terminus) (Homo sapiens (Human), UniProt P01116, G12C). The experiment is described as follows: Covalent competition assay: scintillation proximity assay (SPA) quantifying covalent modification of KRASG12C. It counts as binding. As to conditions: competition with radiolabeled covalent probe (Compound B/Compound A), 2 hours incubation, 10 nM KRasG12C. The method, then: Cells were harvested by centrifugation and frozen at −80° C. until further processing. […] The cells were lysed by 4 passages through an Avestin Emulsiflex at about 20000 psi and insoluble debris removed by centrifugation and filtered through a 0.45 µm Durapore membrane (Millipore). […] Eluted protein fractions were analyzed by Novex NuPage 4-12% PAGE. […] The protein in the flow through was subjected to a final polishing step on a HiLoad 16/60 Superdex 200 prep grade size-exclusion column pre-equilibrated with SEC-buffer (20 mM HEPES pH 7.4, 150 mM NaCl, 5 mM MgCl2, 1 µM GDP). Positive fractions were determined by PAGE (Novex NuPage 4-12% BisTris) analysis.
A scintillation proximity assay (SPA) was used to determine the potency of the compounds.
This assay measures the ability of the test compound to compete with the radiolabeled covalent probe for binding to and covalently modify KRASG12C.
(see above for synthesis of Compound A and Compound B). A serial dilution of the compounds to be tested is mixed with a fixed concentration of the radiolabeled covalent probe before incubation with KRASG12C:GDP as described below. KRASG12C can either be bound by the radiolabeled covalent probe (Compound B), resulting in light being emitted from the beads, or bound by covalent test compound preventing signal generation.
A 1/20 isotopic dilution of labeled (Compound B) and non-labeled covalent (Compound A) probe was prepared and added to all wells on the plate. The reaction was started by addition of KRasG12C (M1-K169, biotinylated on the N-terminus) to the compounds and incubated for 2 hours with continuous agitation allowing for full modification of KRasG12C with probe or test compounds. Final concentrations in an assay volume of 40 μL were 10 nM KRasG12C, 25 nM radio-ligand and 475 nM unlabelled ligand. The assay buffer contained 20 mM Tris-HCl pH 7.5 (Invitrogen), 150 mM NaCl (Sigma Aldrich), 0.1 mM MgCl2 (Sigma Aldrich), and 0.01% Tween-20 (Sigma Aldrich). Following addition of 50 μL of a 400 μg/mL suspension of streptavidin-coated YSi beads (Perkin Elmer), plates were incubated for a further 30 min with continuous agitation before reading the plates on a scintillation counter (Topcount NXT 384 (Packard).
Evaluation was carried out using assay data analysis software (such as the standard Novartis in-house Helios software application, Novartis Institutes for BioMedical Research, unpublished) using the methods described in Formenko et al., Robust Regression for high-throughput screening, Computer Methods and Programs in Biomedicine, 2006, 82, 31-37. Following normalization of activity values for the wells to % inhibition (% inhibition=[(high control−sample)/(high control−low control)]×100), IC50 fitting was carried out from the duplicate determinations present on each plate according to Formenko et al., 2006.
Evaluation can also be carried out using commercially available software which is designed to derive IC50 values using 4-parameter fits (e.g. GraphPad Prism, XL fit).
A general note: In a scintillation proximity assay essentially only radioactivity close to the scintillant gives light.
The term IC50 denotes the concentration that inhibits the measured activity by half. In the case of `C=CC(=O)N1CC2(CC(n3nc(N4CCC5(CC4)CN(C(C)=O)CCO5)c(-c4c(Cl)c(C)cc5[nH]ncc45)c3C)C2)C1` (single isomer, unassigned) [Example 26a, 1-(6-(3-(4-acetyl-1-oxa-4,9-diazaspiro [5.5]undecan-9-yl)-4-(5-chloro-6-methyl-1H-indazol-4-yl)-5-methyl-1H-pyrazol-1-yl)-2-azaspiro[3.3]heptan-2-yl)prop-2-en-1-one], the IC50 worked out at 11500 nM. Under `C=CC(=O)N1CC2(CC(n3nc(N4CCC5(CC4)CN(C(C)=O)CCO5)c(-c4c(Cl)c(C)cc5[nH]ncc45)c3C)C2)C1` (single isomer, unassigned) [Example 26b, 1-(6-(3-(4-acetyl-1-oxa-4,9-diazaspiro [5.5]undecan-9-yl)-4-(5-chloro-6-methyl-1H-indazol-4-yl)-5-methyl-1H-pyrazol-1-yl)-2-azaspiro[3.3]heptan-2-yl)prop-2-en-1-one] stands 110 nM.

Turning to `C=CC(=O)N1CC2(CC(n3nc(N4CCC(C)(O)CC4(C)C)c(-c4c(Cl)c(C)cc5[nH]ncc45)c3C)C2)C1` (single isomer, unassigned) [Example 27a, 1-(6-(4-(5-chloro-6-methyl-1H-indazol-4-yl)-3-(4-hydroxy-2,2,4-trimethylpiperidin-1-yl)-5-methyl-1H-pyrazol-1-yl)-2-azaspiro[3.3]heptan-2-yl)prop-2-en-1-one], the 50% inhibitory concentration (IC50) is 2700 nM. `C=CC(=O)N1CC2(CC(n3nc(N4CCC(C)(O)CC4(C)C)c(-c4c(Cl)c(C)cc5[nH]ncc45)c3C)C2)C1` (single isomer, unassigned) [Example 27b, 1-(6-(4-(5-chloro-6-methyl-1H-indazol-4-yl)-3-(4-hydroxy-2,2,4-trimethylpiperidin-1-yl)-5-methyl-1H-pyrazol-1-yl)-2-azaspiro[3.3]heptan-2-yl)prop-2-en-1-one]: the IC50 turned out to be 24 nM. Under `C=CC(=O)N1CC2(CC(n3nc(N4CCC(C)(O)CC4(C)C)c(-c4c(Cl)c(C)cc5[nH]ncc45)c3C)C2)C1` (single isomer, unassigned) [Example 28a, 1-(6-(4-(5-chloro-6-methyl-1H-indazol-4-yl)-3-(4-hydroxy-2,2,4-trimethylpiperidin-1-yl)-5-methyl-1H-pyrazol-1-yl)-2-azaspiro[3.3]heptan-2-yl)prop-2-en-1-one] stands 76 nM; under `C=CC(=O)N1CC2(CC(n3nc(N4CCC(C)(O)CC4(C)C)c(-c4c(Cl)c(C)cc5[nH]ncc45)c3C)C2)C1` (single isomer, unassigned) [Example 28b, 1-(6-(4-(5-chloro-6-methyl-1H-indazol-4-yl)-3-(4-hydroxy-2,2,4-trimethylpiperidin-1-yl)-5-methyl-1H-pyrazol-1-yl)-2-azaspiro[3.3]heptan-2-yl)prop-2-en-1-one], 1300 nM; under `C=CC(=O)N1CC2(CC(n3nc(N4CCC(O)CC4(C)C)c(-c4c(Cl)c(C)cc5[nH]ncc45)c3C)C2)C1` (single isomer, unassigned) [Example 29a, 1-(6-(4-(5-chloro-6-methyl-1H-indazol-4-yl)-3-(4-hydroxy-2,2-dimethylpiperidin-1-yl)-5-methyl-1H-pyrazol-1-yl)-2-azaspiro[3.3]heptan-2-yl)prop-2-en-1-one], > 5000 nM. Under `C=CC(=O)N1CC2(CC(n3nc(N4CCC(O)CC4(C)C)c(-c4c(Cl)c(C)cc5[nH]ncc45)c3C)C2)C1` (single isomer, unassigned) [Example 29b, 1-(6-(4-(5-chloro-6-methyl-1H-indazol-4-yl)-3-(4-hydroxy-2,2-dimethylpiperidin-1-yl)-5-methyl-1H-pyrazol-1-yl)-2-azaspiro[3.3]heptan-2-yl)prop-2-en-1-one] stands 32 nM; under `C=CC(=O)N1CC2(CC(n3nc(N4CCC(O)CC4(C)C)c(-c4c(Cl)c(C)cc5[nH]ncc45)c3C)C2)C1` (single isomer, unassigned) [Example 30a, 1-(6-(4-(5-chloro-6-methyl-1H-indazol-4-yl)-3-(4-hydroxy-2,2-dimethylpiperidin-1-yl)-5-methyl-1H-pyrazol-1-yl)-2-azaspiro[3.3]heptan-2-yl)prop-2-en-1-one], 514 nM; under `C=CC(=O)N1CC2(CC(n3nc(N4CCC(O)CC4(C)C)c(-c4c(Cl)c(C)cc5[nH]ncc45)c3C)C2)C1` (single isomer, unassigned) [Example 30b, 1-(6-(4-(5-chloro-6-methyl-1H-indazol-4-yl)-3-(4-hydroxy-2,2-dimethylpiperidin-1-yl)-5-methyl-1H-pyrazol-1-yl)-2-azaspiro[3.3]heptan-2-yl)prop-2-en-1-one], 2700 nM.

With `C=CC(=O)N1CC2(CC(n3nc(N4CCC(N5CCOCC5)CC4(C)C)c(-c4c(Cl)c(C)cc5[nH]ncc45)c3C)C2)C1` (single isomer, unassigned) [Example 34a, 1-(6-(4-(5-chloro-6-methyl-1H-indazol-4-yl)-3-(2,2-dimethyl-4-morpholinopiperidin-1-yl)-5-methyl-1H-pyrazol-1-yl)-2-azaspiro[3.3]heptan-2-yl)prop-2-en-1-one], the IC50 was 3800 nM.

On to `C=CC(=O)N1CC2(CC(n3nc(N4CCC(N5CCOCC5)CC4(C)C)c(-c4c(Cl)c(C)cc5[nH]ncc45)c3C)C2)C1` (single isomer, unassigned) [Example 34b, 1-(6-(4-(5-chloro-6-methyl-1H-indazol-4-yl)-3-(2,2-dimethyl-4-morpholinopiperidin-1-yl)-5-methyl-1H-pyrazol-1-yl)-2-azaspiro[3.3]heptan-2-yl)prop-2-en-1-one], for which the half-inhibitory concentration (IC50) stood at 13 nM.

Turning to `C=CC(=O)N1CC2(CC(n3nc(N4CCC(N5CCOCC5)CC4(C)C)c(-c4c(Cl)c(C)cc5[nH]ncc45)c3C)C2)C1` (single isomer, unassigned) [Example 35a, 1-(6-(4-(5-chloro-6-methyl-1H-indazol-4-yl)-3-(2,2-dimethyl-4-morpholinopiperidin-1-yl)-5-methyl-1H-pyrazol-1-yl)-2-azaspiro[3.3]heptan-2-yl)prop-2-en-1-one], the concentration for half-maximal inhibition (IC50) stood at 254 nM. Consider `C=CC(=O)N1CC2(CC(n3nc(N4CCC(N5CCOCC5)CC4(C)C)c(-c4c(Cl)c(C)cc5[nH]ncc45)c3C)C2)C1` (single isomer, unassigned) [Example 35b, 1-(6-(4-(5-chloro-6-methyl-1H-indazol-4-yl)-3-(2,2-dimethyl-4-morpholinopiperidin-1-yl)-5-methyl-1H-pyrazol-1-yl)-2-azaspiro[3.3]heptan-2-yl)prop-2-en-1-one], for which the IC50 came out at 1500 nM. `C=CC(=O)N1CC2(CC(n3nc(N4CCN(C(C)=O)CC4)c(-c4c(Cl)ccc5[nH]ncc45)c3C)C2)C1` (single isomer, unassigned) [Example 36a, 1-(6-(3-(4-acetylpiperazin-1-yl)-4-(5-chloro-1H-indazol-4-yl)-5-methyl-1H-pyrazol-1-yl)-2-azaspiro[3.3]heptan-2-yl)prop-2-en-1-one]: the IC50 stood at 24400 nM.

Turning to `C=CC(=O)N1CC2(CC(n3nc(N4CCN(C(C)=O)CC4)c(-c4c(Cl)ccc5[nH]ncc45)c3C)C2)C1` (single isomer, unassigned) [Example 36b, 1-(6-(3-(4-acetylpiperazin-1-yl)-4-(5-chloro-1H-indazol-4-yl)-5-methyl-1H-pyrazol-1-yl)-2-azaspiro[3.3]heptan-2-yl)prop-2-en-1-one], the half-inhibitory concentration (IC50) worked out at 2400 nM. Next, `C=CC(=O)N1CC2(CC(n3nc(N4CC(c5cccnc5)C4)c(-c4c(Cl)c(C)cc5[nH]ncc45)c3C)C2)C1` (single isomer, unassigned) [Example 37a, 1-(6-(4-(5-chloro-6-methyl-1H-indazol-4-yl)-5-methyl-3-(3-(pyridin-3-yl)azetidin-1-yl)-1H-pyrazol-1-yl)-2-azaspiro[3.3]heptan-2-yl)prop-2-en-1-one]: > 50000 nM; `C=CC(=O)N1CC2(CC(n3nc(N4CC(c5cccnc5)C4)c(-c4c(Cl)c(C)cc5[nH]ncc45)c3C)C2)C1` (single isomer, unassigned) [Example 37b, 1-(6-(4-(5-chloro-6-methyl-1H-indazol-4-yl)-5-methyl-3-(3-(pyridin-3-yl)azetidin-1-yl)-1H-pyrazol-1-yl)-2-azaspiro[3.3]heptan-2-yl)prop-2-en-1-one]: 2100 nM.
